How the values were obtained:
Test in all cases: relative viability (nuclei count vs DMSO), 5 days (fraction); higher = more cells survive
[1] = compound: COc1cc(Nc2c(C#N)cnc3cc(OCCCN4CCN(C)CC4)c(OC)cc23)c(Cl)cc1Cl [Bosutinib] + C[C@@H](Oc1cc(-c2cnn(C3CCNCC3)c2)cnc1N)c1c(Cl)ccc(F)c1Cl [Crizotinib] (partner 1 µM)
How it was run: (§1)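 Relative viability divides the nuclei count in treated wells by that in vehicle wells. Lung cancer cell lines were seeded in 1536-well plates, dosed by pin tool the next day, and fixed and stained after 5 days in one step with final 0.05% Triton X-100, 1% formaldehyde and 1 ug/ml Hoechst. Dosing was a single drug or a fixed anchor-drug dose plus five library-drug doses (not always all listed) in √10 steps, and values are medians of duplicate plates imaged at 4×.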

[2] = compound: COc1cc(Nc2c(C#N)cnc3cc(OCCCN4CCN(C)CC4)c(OC)cc23)c(Cl)cc1Cl [Bosutinib] + CS(=O)(=O)N1CCN(Cc2cc3nc(-c4cccc5[nH]ncc45)nc(N4CCOCC4)c3s2)CC1 [Pictilisib] (partner 1 µM)
How it was run: as §1

[3] = compound: COc1cc(Nc2c(C#N)cnc3cc(OCCCN4CCN(C)CC4)c(OC)cc23)c(Cl)cc1Cl [Bosutinib] + CS(=O)(=O)CCNCc1ccc(-c2ccc3ncnc(Nc4ccc(OCc5cccc(F)c5)c(Cl)c4)c3c2)o1 [Lapatinib] (partner 2 µM)
How it was run: as §1

[4] = compound: COc1cc(Nc2c(C#N)cnc3cc(OCCCN4CCN(C)CC4)c(OC)cc23)c(Cl)cc1Cl [Bosutinib] + N=C(N)NC(=N)NCCc1ccccc1 [Phenformin] (partner 250 µM)
How it was run: as §1

[5] = compound: COc1cc(Nc2c(C#N)cnc3cc(OCCCN4CCN(C)CC4)c(OC)cc23)c(Cl)cc1Cl [Bosutinib] + CC1(C)CCC(c2ccc(Cl)cc2)=C(CN2CCN(c3ccc(C(=O)NS(=O)(=O)c4ccc(N[C@H](CCN5CCOCC5)CSc5ccccc5)c(S(=O)(=O)C(F)(F)F)c4)cc3)CC2)C1 [Navitoclax] (partner 0.5 µM)
How it was run: as §1

[6] = compound: COc1cc(Nc2c(C#N)cnc3cc(OCCCN4CCN(C)CC4)c(OC)cc23)c(Cl)cc1Cl [Bosutinib] + COc1cc2c(Oc3ccc(NC(=O)C4(C(=O)Nc5ccc(F)cc5)CC4)cc3F)ccnc2cc1OCCCN1CCOCC1 [Foretinib] (partner 0.25 µM)
How it was run: as §1

[7] = compound: COc1cc(Nc2c(C#N)cnc3cc(OCCCN4CCN(C)CC4)c(OC)cc23)c(Cl)cc1Cl [Bosutinib] + Cc1nc(NC(=O)N2CCC[C@H]2C(N)=O)sc1-c1ccnc(C(C)(C)C(F)(F)F)c1 [Alpelisib] (partner 2 µM)
How it was run: as §1

[8] = compound: COc1cc(Nc2c(C#N)cnc3cc(OCCCN4CCN(C)CC4)c(OC)cc23)c(Cl)cc1Cl [Bosutinib] + C[C@]1(O)C[C@@H](c2nc(-c3ccc4ccc(-c5ccccc5)nc4c3)c3c(N)nccn32)C1 [Linsitinib] (partner 1 µM)
How it was run: as §1

[9] = compound: COc1cc(Nc2c(C#N)cnc3cc(OCCCN4CCN(C)CC4)c(OC)cc23)c(Cl)cc1Cl [Bosutinib] + O=C(c1cc(Cc2n[nH]c(=O)c3ccccc23)ccc1F)N1CCN(C(=O)C2CC2)CC1 [Olaparib] (partner 8 µM)
How it was run: as §1

[10] = compound: COc1cc(Nc2c(C#N)cnc3cc(OCCCN4CCN(C)CC4)c(OC)cc23)c(Cl)cc1Cl [Bosutinib] + Nc1ncn([C@H]2C[C@H](O)[C@@H](CO)O2)c(=O)n1 [Decitabine] (partner 2 µM)
How it was run: as §1

[11] = compound: COc1cc(Nc2c(C#N)cnc3cc(OCCCN4CCN(C)CC4)c(OC)cc23)c(Cl)cc1Cl [Bosutinib]
How it was run: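 Viability is treated-well nuclei as a fraction of vehicle-well nuclei, reported as the median across plates. Before counting, lung cancer cell lines were kept overnight at 37 °C in 1536-well plates, pinned with five √10-spaced library-drug doses on vehicle-anchored plates, and left 5 days without medium change, then fixed, permeabilised and Hoechst-stained in one step, imaged at 4× and counted by MetaXpress. A plate passed only if control CV was below 25% and at least one doubling occurred.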

[12] = compound: COc1cc(Nc2c(C#N)cnc3cc(OCCCN4CCN(C)CC4)c(OC)cc23)c(Cl)cc1Cl [Bosutinib] + CC(C)C[C@H](NC(=O)[C@H](Cc1ccccc1)NC(=O)c1cnccn1)B(O)O [Bortezomib] (partner 0.002 µM)
How it was run: as §1

A549
relative viability ([1]; first compound 0.01 µM): 0.761 | relative viability ([1]; first compound 0.03162 µM): 0.66 | relative viability ([1]; first compound 0.1 µM): 0.724 | relative viability ([1]; first compound 1 µM): 1.01 | relative viability ([2]; first compound 0.01 µM): 0.442 | relative viability ([2]; first compound 0.03162 µM): 0.447 | relative viability ([2]; first compound 0.1 µM): 0.494 | relative viability ([2]; first compound 1 µM): 0.513 | relative viability ([3]; first compound 0.01 µM): 0.949 | relative viability ([3]; first compound 0.03162 µM): 1.05 | relative viability ([3]; first compound 0.1 µM): 1.06 | relative viability ([3]; first compound 1 µM): 1.03 | relative viability ([4]; first compound 0.01 µM): 0.197 | relative viability ([4]; first compound 0.03162 µM): 0.169 | relative viability ([4]; first compound 0.1 µM): 0.149 | relative viability ([4]; first compound 1 µM): 0.124 | relative viability ([5]; first compound 0.01 µM): 1.2 | relative viability ([5]; first compound 0.03162 µM): 1.26 | relative viability ([5]; first compound 0.1 µM): 1.27 | relative viability ([5]; first compound 1 µM): 1.07 | relative viability ([6]; first compound 0.01 µM): 0.946 | relative viability ([6]; first compound 0.03162 µM): 1 | relative viability ([6]; first compound 0.1 µM): 0.92 | relative viability ([6]; first compound 1 µM): 0.908 | relative viability ([7]; first compound 0.01 µM): 0.731 | relative viability ([7]; first compound 0.03162 µM): 0.78 | relative viability ([7]; first compound 0.1 µM): 0.734 | relative viability ([7]; first compound 1 µM): 0.621 | relative viability ([8]; first compound 0.01 µM): 0.676 | relative viability ([8]; first compound 0.03162 µM): 0.624 | relative viability ([8]; first compound 0.1 µM): 0.55 | relative viability ([8]; first compound 1 µM): 0.499 | relative viability ([9]; first compound 0.01 µM): 0.52 | relative viability ([9]; first compound 0.03162 µM): 0.447 | relative viability ([9]; first compound 0.1 µM): 0.357 | relative viability ([9]; first compound 1 µM): 0.286 | relative viability ([10]; first compound 0.01 µM): 0.279 | relative viability ([10]; first compound 0.03162 µM): 0.226 | relative viability ([10]; first compound 0.1 µM): 0.237 | relative viability ([10]; first compound 1 µM): 0.261 | relative viability ([11]; 0.01 µM): 1 | relative viability ([11]; 0.03162 µM): 1.04 | relative viability ([11]; 0.1 µM): 1.01 | relative viability ([11]; 1 µM): 0.939

Calu-6
relative viability ([1]; first compound 0.01 µM): 0.747 | relative viability ([1]; first compound 0.03162 µM): 0.796 | relative viability ([1]; first compound 0.1 µM): 0.798 | relative viability ([1]; first compound 1 µM): 0.788 | relative viability ([2]; first compound 0.01 µM): 0.937 | relative viability ([2]; first compound 0.03162 µM): 0.923 | relative viability ([2]; first compound 0.1 µM): 0.867 | relative viability ([2]; first compound 1 µM): 0.834 | relative viability ([3]; first compound 0.01 µM): 1.15 | relative viability ([3]; first compound 0.03162 µM): 1.14 | relative viability ([3]; first compound 0.1 µM): 1.11 | relative viability ([3]; first compound 1 µM): 0.893 | relative viability ([12]; first compound 0.01 µM): 1.01 | relative viability ([12]; first compound 0.03162 µM): 0.954 | relative viability ([12]; first compound 0.1 µM): 1.02 | relative viability ([12]; first compound 1 µM): 0.905 | relative viability ([5]; first compound 0.01 µM): 0.814 | relative viability ([5]; first compound 0.03162 µM): 0.801 | relative viability ([5]; first compound 0.1 µM): 0.757 | relative viability ([5]; first compound 1 µM): 0.821 | relative viability ([6]; first compound 0.01 µM): 0.927 | relative viability ([6]; first compound 0.03162 µM): 0.888 | relative viability ([6]; first compound 0.1 µM): 0.932 | relative viability ([6]; first compound 1 µM): 0.772 | relative viability ([7]; first compound 0.01 µM): 0.927 | relative viability ([7]; first compound 0.03162 µM): 1.07 | relative viability ([7]; first compound 0.1 µM): 0.958 | relative viability ([7]; first compound 1 µM): 0.824 | relative viability ([8]; first compound 0.01 µM): 1.05 | relative viability ([8]; first compound 0.03162 µM): 0.957 | relative viability ([8]; first compound 0.1 µM): 0.96 | relative viability ([8]; first compound 1 µM): 0.794 | relative viability ([9]; first compound 0.01 µM): 0.596 | relative viability ([9]; first compound 0.03162 µM): 0.561 | relative viability ([9]; first compound 0.1 µM): 0.598 | relative viability ([9]; first compound 1 µM): 0.472 | relative viability ([11]; 0.01 µM): 1.01 | relative viability ([11]; 0.03162 µM): 1.02 | relative viability ([11]; 0.1 µM): 0.976 | relative viability ([11]; 1 µM): 0.837

EBC-1
relative viability ([1]; first compound 0.01 µM): 0.199 | relative viability ([1]; first compound 0.03162 µM): 0.185 | relative viability ([1]; first compound 0.1 µM): 0.183 | relative viability ([1]; first compound 1 µM): 0.191 | relative viability ([2]; first compound 0.01 µM): 0.347 | relative viability ([2]; first compound 0.03162 µM): 0.463 | relative viability ([2]; first compound 0.1 µM): 0.404 | relative viability ([2]; first compound 1 µM): 0.358 | relative viability ([3]; first compound 0.01 µM): 0.216 | relative viability ([3]; first compound 0.03162 µM): 0.221 | relative viability ([3]; first compound 0.1 µM): 0.187 | relative viability ([3]; first compound 1 µM): 0.204 | relative viability ([12]; first compound 0.01 µM): 0.484 | relative viability ([12]; first compound 0.03162 µM): 0.492 | relative viability ([12]; first compound 0.1 µM): 0.513 | relative viability ([12]; first compound 1 µM): 0.523 | relative viability ([5]; first compound 0.01 µM): 0.393 | relative viability ([5]; first compound 0.03162 µM): 0.461 | relative viability ([5]; first compound 0.1 µM): 0.519 | relative viability ([5]; first compound 1 µM): 0.609 | relative viability ([6]; first compound 0.01 µM): 0.115 | relative viability ([6]; first compound 0.03162 µM): 0.11 | relative viability ([6]; first compound 0.1 µM): 0.104 | relative viability ([6]; first compound 1 µM): 0.0985 | relative viability ([7]; first compound 0.01 µM): 0.787 | relative viability ([7]; first compound 0.03162 µM): 0.798 | relative viability ([7]; first compound 0.1 µM): 0.833 | relative viability ([7]; first compound 1 µM): 0.736 | relative viability ([8]; first compound 0.01 µM): 0.93 | relative viability ([8]; first compound 0.03162 µM): 0.906 | relative viability ([8]; first compound 0.1 µM): 0.937 | relative viability ([8]; first compound 1 µM): 0.916 | relative viability ([9]; first compound 0.01 µM): 0.693 | relative viability ([9]; first compound 0.03162 µM): 0.737 | relative viability ([9]; first compound 0.1 µM): 0.659 | relative viability ([9]; first compound 1 µM): 0.658 | relative viability ([11]; 0.01 µM): 1.05 | relative viability ([11]; 0.03162 µM): 0.956 | relative viability ([11]; 0.1 µM): 0.984 | relative viability ([11]; 1 µM): 0.881
